Experimental data published in patent US10357574B2, “Optical sensor conjugates for detecting reactive oxygen and/or reactive nitrogen species in vivo” (The General Hospital Corporation, priority 2010, dated 2019).

System: infarcted mouse hearts
Assay: Mouse model of myocardial infarction (permanent coronary ligation), fluorescence imaging of heart sections
Type: in vivo, mice (C57/B6)
Details: injected intravenously into the tail-vein 12-14 hours after MI, imaged 24 hours later
Protocol: To investigate the utility of the optical sensor conjugate in vivo, we determined the ability of the sensor to monitor ischemia and inflammation as a result of permanent coronary ligation in a mouse model of myocardial infarction. For all experiments, the agents (optical sensor conjugate or fluorogenic small molecule with linker) were injected intravenously into the tail-vein of the mice 12-14 hours after MI and imaged 24 hours later when neutrophil recruitment to the infarct is high.
Anesthesized mice were intubated and a thoracotomy was performed in the 4th left intercostal space to visualize the left ventricle where the left coronary artery was ligated. […]
Hearts were excised and rinsed in PBS and cut into myocardial rings of 1-mm thickness and either immediately stained with 2-3-5-triphenyl tetrazolium chloride (TTC) (Nahrendorf et al. Circulation, 113:1196-202 (2006)) to highlight the infarcted tissue or used for histological analysis. Fluorescence reflectance imaging of side-by-side myocardial rings of controls and injected hearts was performed in the GFP channel (lexc=450-480 nm with lem 500-530 nm) and Cy5 channel (lexc=620-650 nm with lem=680-710 nm) using an Olympus OV-100 system (Olympus, Center Valley, Pa.). For histology and fluorescence microscopy, the tissue was embedded in OCT medium (Sakura Finetek, Torrance, Calif.). […]

## CCN(CC)c1ccc2c(c1)Oc1cc(N(CC)CC)ccc1N2C(=O)CCCC(=O)O [small molecule probe, sodium 5-(3,7-bis(diethylamino)-10H-phenoxazin-10-yl)-5-oxopentanoate]
  localization of fluorescence in coronal heart sections (fluorescence reflectance imaging): washed out of the infarct and into the myocardium
